Here are results for five compounds from patent US11318149B2, “Compositions and methods for inhibiting biofilm-forming bacteria” (Board of Trustees of Michigan State University, priority 2018, dated 2022).

Values after ≈ are worked out from the molar mass of the structure shown. Read-outs that look alike come from different tables or passages of the source.

Holding throughout (format): cell-based, Pseudomonas aeruginosa
One experiment relates to 24-hr old PAO1 biofilms. Kind of experiment: Biofilm susceptibility testing (MBEC assay, BacTiter-Glo). The settings on record: for time required to show antimicrobial activity: 24-hr biofilms, melittin 100 μM, tobramycin 400 μM; for number of viable cells within the biofilms (BacTiter-Glo), mean / percent of cells within 24-hr biofilms killed / fold reduction of viable cells versus untreated biofilm / percent of P. aeruginosa cells in the biofilm killed: 6-hrs; for fold reduction of viable cells versus untreated biofilm / percent of P. aeruginosa cells in the biofilm killed: oxyclozanide 100 μM, tobramycin 500 μM, gentamicin/streptomycin/tetracycline 100 μM, alone or in combination; for time killing curve result at 2 and 4 hrs, single agent: oxyclozanide or tobramycin alone; for EC50: Pseudomonas aeruginosa, read-out: half effective concentration 50 (EC50) of tobramycin; for onset of action: time killing curves, antibiotic alone or with oxyclozanide (100 μM). How it is done:
(§1) To measure antimicrobial susceptibility of biofilms, the MBEC™ assay was used (Innovotech) as previously described. This assay consists of a lid with 96 polystyrene pegs used to grow biofilms. Briefly, an overnight culture was washed and diluted to an OD600 of 0.001 and seeded into a MBEC™ plate. To grow biofilms, the plate was then incubated for 24-hrs at 35° C. in a humidified chamber with agitation at 150 RPM. After 24-hrs, the lid was then transferred to a 96-well plate filled with DPBS and washed for 5-mins to remove non-adherent cells. The lid was transferred to the 96-well treatment plate and incubated for the indicated time points at 35° C. without agitation. After the incubation, the MBEC™ lid was washed and transferred to a black 96-well ViewPlate (PerkinElmer) filled with BacTiter-Glo™ to enumerate cell viability and then luminescence was measured using a EnVison Multilabel Plate Reader (PerkenElmer, Waltham, Mass.). Percent killing was calculated as:
[formula] Dose response curves were performed in the same manner. Crystal Violet Staining
Time killing curves were performed by growing 24-hr old biofilms on MBEC™ plates as previously described. Briefly, 100 μM of oxyclozanide and 500 μM of tobramycin were used to test for synergy at high concentrations of tobramycin, mirroring what is done clinically. The peg-lid was briefly washed in DPBS to remove non-adherent cells and transferred to a treatment plate and incubated at 35° C. for 8-hrs. At 0, 2, 4, 6, and 8-hrs pegs were collected and BacTiter-Glo™ was used to determine cell viability.

The subject of experiment [1] is P. aeruginosa cells within biofilms. The experiment in a line: TO-PRO-3 staining for permeabilization of biofilm cells. The settings on record: melittin 100 μM, 2 hours. How it is done:
24-hr old biofilms were treated with melittin (100 μM), or tobramycin (400 μM), alone and in combination for 2 hours. […] Percent values indicate the average relative abundance of events within each gate normalized to the total number of events analyzed, excluding artifacts, aggregates and debris. The experiment was performed two separate times in duplicate. The results are percent averages plus the SEM. A one-way ANOVA followed by Bonferroni's multiple comparison post-hoc test was used to determine statistical significance between tobramycin versus melittin, tobramycin versus the combination, and melittin versus the combination(*, p<0.05).

A further experiment relates to P. aeruginosa biofilms. The experiment in a line: Crystal violet staining of biofilm biomass (biofilm dispersal). The settings on record: for effect on biofilm biomass / dispersal (crystal violet): six hour exposure, 50 μM-400 μM, alone and in combination. The protocol:
To study biofilm dispersal under static conditions, crystal violet staining was performed as previously described. Briefly, 24-hr old biofilms formed on MBEC™ plates, as described above, were stained with crystal violet after a 6-hr incubation with oxyclozanide and tobramycin.
One possible mechanism by which oxyclozanide enhances tobramycin activity is by inducing biofilm dispersal. To test this, the ability of oxyclozanide and tobramycin to disperse P. aeruginosa biofilms was examined using crystal violet staining of the biofilm biomass after six hour exposure to dilutions of oxyclozanide or tobramycin alone and in combination from 50 μM-400 μM (FIG. 6).

For experiment [2], the system named is P. aeruginosa planktonically grown cells. The experiment in a line: microbe, parasite or virus in culture. How it is done: To measure antimicrobial susceptibility of planktonic cells, MICs were determined using the broth microdilution technique, as described previously. Briefly, microdilutions were made in a 96-well plate in 1% MHB diluted in Dulbecco's Phosphate Buffered Saline with magnesium and calcium (DPBS, Sigma-Aldrich). Cells were combined with the serial dilutions in the 96-well plate at a concentration of ˜[…] CFU/mL in 10% MHB. The plates were then incubated for 24-hrs at 35° C. in a humidified chamber with agitation at 150 RPM. MIC breakpoints were chosen as the minimum concentration in which no turbidity greater than background was measured (absorbance at 595 nm), using a SpectraMax M5 microplate spectrophotometer system (Molecular Devices Sunnyvale, Calif.

Experiment [3] deals with P. aeruginosa clinical isolates from CF patients grown in biofilms. Kind of experiment: Biofilm susceptibility of CF clinical isolates (MBEC, BacTiter-Glo). As to conditions: 100 μM oxyclozanide; 6-hrs. The protocol:
24-hr old biofilms grown on MBEC plates were treated with oxyclozanide (100 μM), or tobramycin (500 μM), alone and in combination for 6-hrs. The number of viable cells within the biofilms were quantified by BacTiter-Glo™. The assay was performed three times in triplicate. The results represent means plus the SEM. A one-way ANOVA followed by Bonferroni's multiple comparison post-hoc test was used to determine statistical significance compared to tobramycin alone (*, p<0.05, NS, not significant).
as §1, with “The lid was transferred to the 96-well treatment plate and incubated for the indicated time points at 35° C. without agitation.” left out, “as: […]” for “as:”

Setting [4] is: Pseudomonas aeruginosa, read-out: Minimum Inhibitory Concentrations (MIC), +Melittin.
Where [5] appears, read: Pseudomonas aeruginosa, read-out: Minimum Inhibitory Concentrations (MIC), Alone.

Regarding `CC[C@H](C)[C@H](NC(=O)CN)C(=O)NCC(=O)N[C@@H](C)C(=O)N[C@H](C(=O)N[C@@H](CC(C)C)C(=O)N[C@@H](CCCCN)C(=O)N[C@H](C(=O)N[C@@H](CC(C)C)C(=O)N[C@H](C(=O)N[C@H](C(=O)NCC(=O)N[C@@H](CC(C)C)C(=O)N1CCC[C@H]1C(=O)N[C@@H](C)C(=O)N[C@@H](CC(C)C)C(=O)N[C@H](C(=O)N[C@@H](CO)C(=O)N[C@@H](Cc1c[nH]c2ccccc12)C(=O)N[C@H](C(=O)N[C@@H](CCCCN)C(=O)N[C@@H](CCCNC(=N)N)C(=O)N[C@@H](CCCCN)C(=O)N[C@@H](CCCNC(=N)N)C(=O)N[C@@H](CCC(N)=O)C(=O)N[C@@H](CCC(N)=O)C(N)=O)[C@@H](C)CC)[C@@H](C)CC)[C@@H](C)O)[C@@H](C)O)C(C)C)C(C)C` [melittin], in the experiment with 24-hr old PAO1 biofilms, the “time required to show antimicrobial activity” value worked out at 2 h. Further, the “number of viable cells within the biofilms (BacTiter-Glo), mean” value (“number” below) with 24-hr old PAO1 biofilms (Tobramycin 0 μM, Melittin 12.5 μM) came to 5.18E5; in the experiment on 24-hr old PAO1 biofilms (Tobramycin 0 μM, Melittin 25 μM) it was 4.22E5; in the experiment on 24-hr old PAO1 biofilms (Tobramycin 0 μM, Melittin 50 μM), 2.87E5; in the experiment with 24-hr old PAO1 biofilms (Tobramycin 0 μM, Melittin 100 μM), 2.51E4. Also, the “permeabilization of cells (TO-PRO-3)” value in experiment [1] is listed as “causes permeabilization”. The “biofilm dispersal (crystal violet)” value with P. aeruginosa biofilms (24-hr biofilms treated for 6-hrs) is given as “significant biofilm dispersal”. The “Minimum Inhibitory Concentrations (MIC), Alone” value in experiment [2] was 62.5 to 200 µM.
As for `O=C(Nc1cc(Cl)cc(Cl)c1O)c1c(O)c(Cl)cc(Cl)c1Cl` [oxyclozanide], the “percent of cells within 24-hr biofilms killed” value in the experiment on 24-hr old PAO1 biofilms (400 μM of each agent) is roughly 80%. In the experiment on 24-hr old PAO1 biofilms, the “fold reduction of viable cells versus untreated biofilm” value was “about 2 fold”; the “percent of P. aeruginosa cells in the biofilm killed” value is 44%; the “time killing curve result at 2 and 4 hrs, single agent” value is “no significant killing”. The “percent of cells within 24-hr biofilms killed” value with 24-hr old PAO1 biofilms (oxyclozanide alone between 25 and 200 μM) was 20-40%. Also, the “sensitivity of six clinical isolates to treatment alone” value in experiment [3] is on record as “modest sensitivity”. The “effect on biofilm biomass / dispersal (crystal violet)” value with P. aeruginosa biofilms is listed as “did not impact biofilm biomass”. Moreover, in experiment [2] (planktonically grown cells), the “effect on the minimum inhibitory concentration of tobramycin, gentamicin, streptomycin, or tetracycline” value is “no effect”.
With `[H]/N=C(/N)N[C@H]1[C@H](O)[C@@H](O)[C@H](O[C@@H]2O[C@@H](C)[C@](O)(C=O)[C@H]2O[C@@H]2O[C@@H](CO)[C@H](O)[C@@H](O)[C@@H]2NC)[C@@H](N/C(N)=N\[H])[C@@H]1O` [streptomycin], the “delay in killing activity against 24-hr old biofilms” value with 24-hr old PAO1 biofilms (antibiotic alone, 100 μM) is “did not show a delay”. For the same compound, the MIC in experiment [2] (setting [4]) and in experiment [2] (setting [5]) was 25 to 50 µM (≈ 14.5 to 29.1 µg/mL) in each case.
For the compound `NC[C@H]1O[C@H](O[C@H]2[C@H](O)[C@@H](O[C@H]3O[C@H](CO)[C@@H](O)[C@H](N)[C@H]3O)[C@H](N)C[C@@H]2N)[C@H](N)C[C@@H]1O` [tobramycin], in the experiment on 24-hr old PAO1 biofilms, the “time required to show antimicrobial activity” value turned out to be 6 h; the “fold reduction of viable cells versus untreated biofilm” value was “about 2 fold”; the “percent of P. aeruginosa cells in the biofilm killed” value was determined as 56%; the “time killing curve result at 2 and 4 hrs, single agent” value is listed as “increase in cell number”. In addition, the onset of action with 24-hr old PAO1 biofilms is 6 h. Further, the EC50 in the experiment with 24-hr old PAO1 biofilms (PAO1, in combination with melittin) was 16 µM. Further, the EC50 in the experiment on 24-hr old PAO1 biofilms (PAO1, tobramycin alone) is 46 µM. Moreover, in the experiment with 24-hr old PAO1 biofilms (Tobramycin 50 μM, Melittin 0 μM), the “number” value is recorded as 1.82E5. Besides, the “number” value in the experiment on 24-hr old PAO1 biofilms (Tobramycin 100 μM, Melittin 0 μM) is on record as 1.91E5. In the experiment with 24-hr old PAO1 biofilms (Tobramycin 200 μM, Melittin 0 μM), the “number” value is on record as 2.27E5. In the experiment on P. aeruginosa biofilms, the “effect on biofilm biomass / dispersal (crystal violet)” value was “significantly reduced biofilm biomass”. The MIC in experiment [2] (setting [4]) is 3.12 to 6.25 µM (≈ 1.46 to 2.92 µg/mL). Further, the MIC in experiment [2] (setting [5]) was 3.12 to 6.25 µM (≈ 1.46 to 2.92 µg/mL).
gentamicin: the onset of action in the experiment with 24-hr old PAO1 biofilms came out at 4 h. In addition, the MIC in experiment [2] (+Melittin, read-out: Minimum Inhibitory Concentrations (MIC), +Melittin) came to 12.5 µM. For the same compound, the “Minimum Inhibitory Concentrations (MIC), Alone” value in experiment [2] is 6.25 to 12.5 µM.
